Data published in US10471020B2, “Nanoparticles with protected interiors, and methods of use thereof” (Universidade de Santiago de Compostela, priority 2016, dated 2019).

Assays:
Caco-2 cells = experiment: Cytotoxicity study on Caco-2 cells (MTS assay); assay type: cell-based, Human; details: Caco-2, 2 hour incubation
Protocol: Culture of Caco-2 cells. Caco-2 cells were grown in DMEM high glucose with L-glutamine supplemented with 10% heat inactivated fetal bovine serum, 1% penicillin (100 U/mL), streptomycin (100 micrograms/mL), and 1% NEAA solution.
Cytotoxicity study on Caco-2 cells. Cytotoxicity was determined using a MTS assay as an indicator of cell viability. Cell viability was assessed after the co-incubation of 10,000 Caco-2 cells/well on a 96-well tissue cultured plate (Costar® Corning®) with the aforementioned formulations in dispersion in culture DMEM medium supplemented with 4 mM of glutamine, 100 U/mL of penicillin, 100 microgram/mL of streptomycin and […] heat inactivated fetal bovine serum. […] The EC50 value for the different formulations were calculated from the dataset by non-linear regression analysis using GraphPad Prism.

[1] = system: human intestinal tissue (jejunal); experiment: Toxicity in human intestinal tissue in Ussing chambers (electrophysiology, forskolin response); details: Ussing chamber
Description: Toxicity and permeability in human intestinal tissue. Jejunal tissue samples were collected from patients undergoing laparoscopic Roux-en-Y gastric bypass. Patients had given full informed consent. The study has been reviewed and approved by a regional ethical review board. Tissue samples were immediately transferred into a vessel containing cold, oxygenated Krebs-Ringer buffer and quickly transported to the laboratory. Arriving, the epithelium was dissected away from sub-epithelial tissues and mounted in horizontal as well as vertically oriented Ussing chambers with 9 mm openings between the two chambers. The basolateral chamber was filled with glucose containing Krebs-Ringer buffer, while the glucose in the apical chamber was substituted with mannitol. This is to avoid SGLT-induced tight junction opening. […] Electrophysiology of the tissue was monitored throughout the experiment to assure continued tissue viability. […] Viable tissue with oxidative metabolism will form cAMP in response to forskolin leading to an opening of CFTR C1 channels, the response was monitored as changes in potential difference and short-circuit current over the epithelium. The permeability of fluorescently labeled nanoparticles was analyzed in a plate reader and the apparent permeability rate constant (Papp) was calculated.

CC(C)CCC[C@@H](C)[C@H]1CC[C@H]2[C@@H]3CC=C4C[C@@H](OC(=O)N[C@H](CCCNC(=N)N)C(=O)N[C@H](CCCNC(=N)N)C(=O)N[C@H](CCCNC(=N)N)C(=O)N[C@H](CCCNC(=N)N)C(=O)N[C@H](CCCNC(=N)N)C(=O)N[C@H](CCCNC(=N)N)C(=O)N[C@H](CCCNC(=N)N)C(=O)N[C@H](CCCNC(=N)N)C(N)=O)CC[C@]4(C)[C@H]3CC[C@]12C [Chol-R8]
cytotoxicity (Caco-2 cells): highest cytotoxicity
cytotoxicity sequence of tested products (Caco-2 cells): Chol-R8>C12-R8>ENCPs>diblock or branched PGA-PEG

CCCCCCCCCCCC(=O)N[C@H](CCCNC(=N)N)C(=O)N[C@H](CCCNC(=N)N)C(=O)N[C@H](CCCNC(=N)N)C(=O)N[C@H](CCCNC(=N)N)C(=O)N[C@H](CCCNC(=N)N)C(=O)N[C@H](CCCNC(=N)N)C(=O)N[C@H](CCCNC(=N)N)C(=O)N[C@H](CCCNC(=N)N)C(N)=O [Formulation C12-R8]
cytotoxicity sequence of tested products (Caco-2 cells): Chol-R8>C12-R8>ENCPs>diblock or branched PGA-PEG
forskolin response [1]: no evident change
